Measured values taken from patent US6833368B2, “1, 2, 5, 10-tetrahydropyridazino[4, 5-b]quinoline-1,10-diones and their use for the treatment of pain” (AstraZeneca AB, priority 2000, dated 2004).

Legend:
[1] = tested on: CCI rats (thermal hyperalgesia); settings: oral, three times daily for 5 days
[2] = target: T1, NMDA receptor glycine site (Rattus norvegicus, UniProt P35439); assay: Test A: Inhibition of binding of [3H]-MDL105,519 to brain membranes; settings: inhibition of 1.2 nM [3H]MDL105,519 binding to brain membranes; rat or human membranes not specified
T1 construct: The rat brain membranes used in the experiments were obtained from Analytical Biological Services Inc; tissue Analytical Biological Services Inc; host or cells: rat brain membranes (cerebral cortex and hippocampus, Sprague Dawley)
Description: Test A: Inhibition of Binding of [^3H]-MDL105,519:
Binding of compounds to the NMDA receptor glycine site may be assessed by measuring the ability of test compounds to inhibit the binding of tritiated MDL105,519 to brain membranes bearing the receptor.
Rat Brain Membranes: The rat brain membranes used in the experiments were obtained from Analytical Biological Services Inc., and were prepared substantially in accordance with the method of B. M. Baron et al., J. Pharmacol. Exp. Ther. 250, 162 (1989). Briefly, fresh brain tissue including cerebral cortex and hippocampus from […] Sprague Dawley rats was homogenized in 0.32 M sucrose and centrifuged at low speed to separate cellular membranes from other cellular components. The membranes were then washed 3 times using deionized water, followed by treatment with 0.04% Triton X-100. Finally, membranes were washed six times in 50 mM Tris citrate buffer, pH 7.4, and frozen at −80° C. until use.
[^3H]MDL105,519 (72 Ci/mmol) was purchased from Amersham. Cold MDL105,519 was purchased from Sigma/RBI. Binding assays were performed substantially in accordance with the protocol of B. M. Baron et al., J. Pharmacol. Exp. Ther. 279, 62 (1996), as follows. On the day of the experiment, brain membranes were thawed at room temperature and suspended in 50 mM tris acetate buffer, pH 7.4 (“TAB”). Seventy-five micro grams per milliliter protein (by using the BioRad dye) were used for competition binding. The experiments were carried out using 96-well plates. Membranes were incubated with 20 μL of compounds of various concentrations and 1.2 nM [^3H]MDL105,519 for 30 minutes at room temperature in a total volume of 250 μL. Non specific binding was determined by using 100 μM of unlabeled MDL105,519. The unlabeled MDL105,519 and compounds were dissolved as 12.5 mM stock solutions in DMSO. Final DMSO concentration in each well was kept below 1%, which concentration was found not to alter the binding results. After incubation, unbound [^3H]MDL105,519 was removed by filtration onto GF/B Unifilter plates using a Packard harvester. Filters were washed four times with ice cold TAB (total of 1.2 mL buffer). The plates were dried overnight at room temperature and bound radioactivity was measured on a Packard TopCount after the addition of 45 μL per well of the MICROSCINT O.
Human Brain Membranes: Human brain membranes were obtained from Analytical Biological Services Inc., and assays were performed as described for rat membranes.
Data analysis: Data was analyzed using a Microsoft Excel spreadsheet and GraphPad Prizm software and potency of compounds is expressed as the Ki (nM).

Ki [2] [µM] | melting point [°C] | Compound | Test C % Inh. (percent decrease of hyperalgesia at MED) ([1]; at the MED, versus vehicle-treated animals) [%] | Test C MED (minimum effective dose) ([1]; dose giving statistically significant decrease in hyperalgesia) [mg/kg/day]
0.725 | > 300 | O=c1c2ccc(Cl)cc2[nH]c2c(O)nn(C3CCCc4ccccc43)c(=O)c12 (racemic) [Ex. 4, (+/−)-7-Chloro-4-hydroxy-2-(1,2,3,4-tetrahydronaphth-1-yl)-1.2,5,10-tetrahydropyridazino[4,5-b]quinoline-1,10-dione] | – | –
0.557 | > 300 | O=c1c2ccc(Cl)cc2[nH]c2c(O)nn(C3CCOc4ccccc43)c(=O)c12 (racemic) [Ex. 2, (+/−)-7-Chloro-4-hydroxy-2-(chroman-4-yl)-1,2,5,10-tetrahydropyridazino[4.5-b]quinoline-1.10-dione] | – | –
0.514 | > 300 | O=c1c2ccc(Cl)cc2[nH]c2c(O)nn(C3CCCc4sccc43)c(=O)c12 (racemic) [Ex. 3, (+/−)-7-Chloro-4-hydroxy-2-(4,5,6,7-tetrahydrobenzo[b]thien-4-yl)-1,2,5,10-tetrahydropyridazino[4,5-b]quinoline-1.10-dione] | – | –

Compound | Ki [2] [µM] | melting point [°C] | Test C % Inh. (percent decrease of hyperalgesia at MED) ([1]; at the MED, versus vehicle-treated animals) [%] | Test C MED (minimum effective dose) ([1]; dose giving statistically significant decrease in hyperalgesia) [mg/kg/day]
O=c1c2ccc(Cl)cc2[nH]c2c(O)nn(C3CCSc4ccccc43)c(=O)c12 (racemic) [Ex. 1, (+/−)-7-chloro-4-hydroxy-2-(2H,3H,4H-Benzo[e]thian-4-yl)-1,2,5,10-tetrahydropyridazino[4,5-b]quinoline-1,10-dione] | 0.411 | – | 56 | 30
